Measurements reported in the NIST ThermoML archive (doi:10.1016/j.jct.2016.02.009).
± gives the expanded uncertainty stated by the source.

Test: molar heat capacity at constant pressure
Details: 101.33 kPa, Crystal 2, Small (less than 1 g) adiabatic calorimetry

Structure (SMILES): CCCCCCCCCCCCCCn1cc[n+](C)c1.O=S(=O)([N-]S(=O)(=O)C(F)(F)F)C(F)(F)F
- molar heat capacity at constant pressure (82.94 K): 276.6 ± 1.5 J/K/mol
- molar heat capacity at constant pressure (83.19 K): 277.4 ± 1.5 J/K/mol
- molar heat capacity at constant pressure (85.13 K): 281.8 ± 1.6 J/K/mol
- molar heat capacity at constant pressure (85.17 K): 281.5 ± 1.6 J/K/mol
- molar heat capacity at constant pressure (87.16 K): 286.5 ± 1.6 J/K/mol
- molar heat capacity at constant pressure (89.15 K): 291.4 ± 1.6 J/K/mol
- molar heat capacity at constant pressure (90 K): 293.7 ± 1.5 J/K/mol
- molar heat capacity at constant pressure (91.14 K): 296.2 ± 1.5 J/K/mol
- molar heat capacity at constant pressure (93.13 K): 301 ± 1.6 J/K/mol
- molar heat capacity at constant pressure (95.13 K): 305.5 ± 1.6 J/K/mol
- molar heat capacity at constant pressure (97.13 K): 310.1 ± 1.6 J/K/mol
- molar heat capacity at constant pressure (99.14 K): 314.6 ± 1.6 J/K/mol
- molar heat capacity at constant pressure (100 K): 316.7 ± 1.7 J/K/mol
- molar heat capacity at constant pressure (101.15 K): 319.3 ± 1.7 J/K/mol
- molar heat capacity at constant pressure (103.16 K): 324 ± 1.7 J/K/mol
- molar heat capacity at constant pressure (105.16 K): 328.1 ± 1.7 J/K/mol
- molar heat capacity at constant pressure (107.17 K): 332.6 ± 1.7 J/K/mol
- molar heat capacity at constant pressure (109.18 K): 336.8 ± 1.7 J/K/mol
- molar heat capacity at constant pressure (110 K): 338.4 ± 1.8 J/K/mol
- molar heat capacity at constant pressure (111.2 K): 340.6 ± 1.8 J/K/mol
- molar heat capacity at constant pressure (113.23 K): 345 ± 1.8 J/K/mol
- molar heat capacity at constant pressure (115.25 K): 349.2 ± 1.8 J/K/mol
- molar heat capacity at constant pressure (117.27 K): 353.4 ± 1.8 J/K/mol
- molar heat capacity at constant pressure (119.3 K): 357.4 ± 1.8 J/K/mol
- molar heat capacity at constant pressure (120 K): 358.8 ± 1.8 J/K/mol
- molar heat capacity at constant pressure (121.32 K): 361.5 ± 1.9 J/K/mol
- molar heat capacity at constant pressure (123.35 K): 365.5 ± 1.9 J/K/mol
- molar heat capacity at constant pressure (124.9 K): 368.4 ± 1.9 J/K/mol
- molar heat capacity at constant pressure (125.83 K): 370.4 ± 1.9 J/K/mol
- molar heat capacity at constant pressure (127.42 K): 373.3 ± 1.9 J/K/mol
- molar heat capacity at constant pressure (128.64 K): 376 ± 1.9 J/K/mol
- molar heat capacity at constant pressure (129.89 K): 378.2 ± 1.9 J/K/mol
- molar heat capacity at constant pressure (130 K): 378.6 ± 1.9 J/K/mol
- molar heat capacity at constant pressure (131.38 K): 381.2 ± 2 J/K/mol
- molar heat capacity at constant pressure (132.35 K): 383 ± 2 J/K/mol
- molar heat capacity at constant pressure (134.13 K): 386.5 ± 2 J/K/mol
- molar heat capacity at constant pressure (134.81 K): 387.8 ± 2 J/K/mol
- molar heat capacity at constant pressure (136.88 K): 391.8 ± 2 J/K/mol
- molar heat capacity at constant pressure (137.28 K): 392.5 ± 2 J/K/mol
- molar heat capacity at constant pressure (139.62 K): 397 ± 2 J/K/mol
- molar heat capacity at constant pressure (139.75 K): 397.2 ± 2 J/K/mol
- molar heat capacity at constant pressure (140 K): 397.8 ± 2 J/K/mol
- molar heat capacity at constant pressure (142.22 K): 402.1 ± 2.1 J/K/mol
- molar heat capacity at constant pressure (142.37 K): 402.3 ± 2.1 J/K/mol
- molar heat capacity at constant pressure (144.69 K): 406.6 ± 2.1 J/K/mol
- molar heat capacity at constant pressure (145.12 K): 407.7 ± 2.1 J/K/mol
- molar heat capacity at constant pressure (147.16 K): 411.2 ± 2.1 J/K/mol
- molar heat capacity at constant pressure (147.86 K): 412.6 ± 2.1 J/K/mol
- molar heat capacity at constant pressure (149.63 K): 415.9 ± 2.1 J/K/mol
- molar heat capacity at constant pressure (150 K): 416.6 ± 2.2 J/K/mol
- molar heat capacity at constant pressure (150.61 K): 418 ± 2.1 J/K/mol
- molar heat capacity at constant pressure (152.1 K): 420.5 ± 2.1 J/K/mol
- molar heat capacity at constant pressure (153.36 K): 423.1 ± 2.2 J/K/mol
- molar heat capacity at constant pressure (154.57 K): 425.1 ± 2.2 J/K/mol
- molar heat capacity at constant pressure (156.12 K): 428.1 ± 2.2 J/K/mol
- molar heat capacity at constant pressure (157.05 K): 429.7 ± 2.2 J/K/mol
- molar heat capacity at constant pressure (158.87 K): 433.3 ± 2.2 J/K/mol
- molar heat capacity at constant pressure (159.52 K): 434.5 ± 2.2 J/K/mol
- molar heat capacity at constant pressure (160 K): 435.3 ± 2.2 J/K/mol
- molar heat capacity at constant pressure (161.63 K): 438.6 ± 2.2 J/K/mol
- molar heat capacity at constant pressure (161.99 K): 439.1 ± 2.2 J/K/mol
- molar heat capacity at constant pressure (164.38 K): 443.7 ± 2.3 J/K/mol
- molar heat capacity at constant pressure (164.46 K): 443.6 ± 2.3 J/K/mol
- molar heat capacity at constant pressure (166.93 K): 448.2 ± 2.3 J/K/mol
- molar heat capacity at constant pressure (167.13 K): 448.7 ± 2.3 J/K/mol
- molar heat capacity at constant pressure (169.4 K): 453 ± 2.3 J/K/mol
- molar heat capacity at constant pressure (169.88 K): 453.9 ± 2.3 J/K/mol
- molar heat capacity at constant pressure (170 K): 454.1 ± 2.3 J/K/mol
- molar heat capacity at constant pressure (171.87 K): 457.5 ± 2.3 J/K/mol
- molar heat capacity at constant pressure (172.63 K): 459.1 ± 2.3 J/K/mol
- molar heat capacity at constant pressure (174.33 K): 462.3 ± 2.4 J/K/mol
- molar heat capacity at constant pressure (175.38 K): 464.4 ± 2.4 J/K/mol
- molar heat capacity at constant pressure (176.79 K): 467 ± 2.4 J/K/mol
- molar heat capacity at constant pressure (178.12 K): 469.7 ± 2.4 J/K/mol
- molar heat capacity at constant pressure (179.25 K): 471.5 ± 2.4 J/K/mol
